Results taken from paper PMC7037947, “Novel ACE Inhibitory Peptides Derived from Simulated Gastrointestinal Digestion in Vitro of Sesame (Sesamum indicum L.) Protein and Molecular Docking Study” (International Journal of Molecular Sciences, 2020).
Ends that are not written are not given here.

T1: Angiotensin Converting Enzyme (ACE) from rabbit lung (Oryctolagus cuniculus, UniProt P12822)
T1 construct: Angiotensin Converting Enzyme (ACE) from rabbit lung; purchased Sigma-Aldrich (St. Louis, MO, USA); host or cells: rabbit lung (tissue-derived)
T1 sequence (P12822 34-1310): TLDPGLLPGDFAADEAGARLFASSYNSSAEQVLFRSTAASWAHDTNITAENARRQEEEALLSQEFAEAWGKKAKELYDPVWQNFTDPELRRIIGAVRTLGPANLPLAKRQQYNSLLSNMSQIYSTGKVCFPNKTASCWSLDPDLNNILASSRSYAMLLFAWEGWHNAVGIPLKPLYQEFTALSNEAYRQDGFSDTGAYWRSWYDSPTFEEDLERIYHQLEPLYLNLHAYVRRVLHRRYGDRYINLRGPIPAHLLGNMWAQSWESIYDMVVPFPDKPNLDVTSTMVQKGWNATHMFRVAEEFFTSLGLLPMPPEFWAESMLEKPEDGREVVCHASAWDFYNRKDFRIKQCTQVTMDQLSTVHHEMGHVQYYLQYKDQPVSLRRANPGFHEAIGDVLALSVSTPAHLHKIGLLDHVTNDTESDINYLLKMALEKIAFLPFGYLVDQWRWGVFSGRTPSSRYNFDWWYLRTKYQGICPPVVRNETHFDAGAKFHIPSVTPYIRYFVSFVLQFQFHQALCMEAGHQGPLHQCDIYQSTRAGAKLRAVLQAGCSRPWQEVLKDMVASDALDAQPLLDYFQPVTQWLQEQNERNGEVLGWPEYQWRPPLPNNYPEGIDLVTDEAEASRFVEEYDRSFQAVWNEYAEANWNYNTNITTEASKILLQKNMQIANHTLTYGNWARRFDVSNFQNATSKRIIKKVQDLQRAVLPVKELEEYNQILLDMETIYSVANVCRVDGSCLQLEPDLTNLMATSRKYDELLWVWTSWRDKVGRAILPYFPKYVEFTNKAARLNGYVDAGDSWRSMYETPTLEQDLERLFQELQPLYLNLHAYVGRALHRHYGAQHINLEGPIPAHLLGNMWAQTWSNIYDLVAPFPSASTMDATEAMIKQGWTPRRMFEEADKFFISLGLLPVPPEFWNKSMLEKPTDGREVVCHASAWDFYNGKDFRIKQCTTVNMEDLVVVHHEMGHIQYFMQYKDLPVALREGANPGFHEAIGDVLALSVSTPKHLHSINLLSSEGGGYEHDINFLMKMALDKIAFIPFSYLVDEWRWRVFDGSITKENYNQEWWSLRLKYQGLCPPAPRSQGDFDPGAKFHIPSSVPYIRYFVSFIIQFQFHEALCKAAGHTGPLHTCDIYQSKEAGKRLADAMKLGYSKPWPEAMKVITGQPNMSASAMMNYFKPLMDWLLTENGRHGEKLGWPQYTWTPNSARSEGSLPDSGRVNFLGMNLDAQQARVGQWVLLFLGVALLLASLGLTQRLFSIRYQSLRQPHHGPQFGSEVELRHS

T2: Angiotensin Converting Enzyme (ACE) from rabbit lung (rabbit) (UniProt P12822)
T2 sequence: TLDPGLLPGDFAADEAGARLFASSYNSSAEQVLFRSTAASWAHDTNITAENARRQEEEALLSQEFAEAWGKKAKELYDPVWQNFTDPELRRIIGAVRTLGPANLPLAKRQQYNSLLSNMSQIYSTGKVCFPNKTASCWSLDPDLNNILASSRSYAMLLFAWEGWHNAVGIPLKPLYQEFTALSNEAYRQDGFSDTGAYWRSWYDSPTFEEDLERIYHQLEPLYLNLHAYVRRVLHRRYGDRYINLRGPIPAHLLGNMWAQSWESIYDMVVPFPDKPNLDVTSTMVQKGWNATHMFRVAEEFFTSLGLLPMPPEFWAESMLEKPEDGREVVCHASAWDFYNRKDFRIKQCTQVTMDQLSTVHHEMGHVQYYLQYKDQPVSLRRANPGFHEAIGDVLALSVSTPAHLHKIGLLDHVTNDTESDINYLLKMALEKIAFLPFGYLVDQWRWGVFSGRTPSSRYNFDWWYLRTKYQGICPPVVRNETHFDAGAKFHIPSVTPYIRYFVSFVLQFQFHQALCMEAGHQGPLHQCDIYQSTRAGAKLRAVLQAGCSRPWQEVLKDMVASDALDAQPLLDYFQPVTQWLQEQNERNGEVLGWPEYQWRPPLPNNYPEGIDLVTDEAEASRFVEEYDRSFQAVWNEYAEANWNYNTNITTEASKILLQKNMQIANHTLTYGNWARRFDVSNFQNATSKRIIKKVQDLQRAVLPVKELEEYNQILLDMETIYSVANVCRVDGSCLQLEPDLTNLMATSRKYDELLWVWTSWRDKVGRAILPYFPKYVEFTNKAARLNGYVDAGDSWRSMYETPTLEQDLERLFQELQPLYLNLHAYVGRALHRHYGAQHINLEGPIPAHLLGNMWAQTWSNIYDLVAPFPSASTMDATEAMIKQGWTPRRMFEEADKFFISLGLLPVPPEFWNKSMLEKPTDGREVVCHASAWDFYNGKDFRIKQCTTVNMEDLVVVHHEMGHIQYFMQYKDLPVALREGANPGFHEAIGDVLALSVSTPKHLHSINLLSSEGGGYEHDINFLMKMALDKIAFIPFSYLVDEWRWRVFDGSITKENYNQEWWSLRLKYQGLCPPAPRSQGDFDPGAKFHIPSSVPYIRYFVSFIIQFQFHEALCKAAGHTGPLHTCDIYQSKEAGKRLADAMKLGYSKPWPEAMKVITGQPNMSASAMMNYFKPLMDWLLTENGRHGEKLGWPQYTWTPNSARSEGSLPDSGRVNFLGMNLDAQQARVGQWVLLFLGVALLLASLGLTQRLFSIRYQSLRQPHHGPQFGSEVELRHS

B1: GHIITVAR (peptide)
peptide: GHIITVAR
B2: … (peptide)
peptide: AGALGDSVTVTR
B3: INTLSGR (peptide)
peptide: INTLSGR
B4: HIGNILSL (peptide)
peptide: HIGNILSL
B5: … (peptide)
peptide: FMPGVPGPIQR
B6: PNYHPSPR (peptide)
peptide: PNYHPSPR
B7: … (peptide)
peptide: AFPAGAAHW
B8: HIITLGR (peptide)
peptide: HIITLGR
B9: LAGNPAGR (peptide)
peptide: LAGNPAGR
B10: … (peptide)
peptide: MPGVPGPIQR

What was measured:
[1] = target: T1, Angiotensin Converting Enzyme (ACE) from rabbit lung; experiment: ACE inhibitory activity assay (HHL substrate, OPA fluorescence); assay type: biochemical; conditions: chemically synthesized peptides identified from peak 4; mean ± SD, n = 3; read-out: IC50 Value inhibiting ACE activity
Description: White sesame (Sesamum indicum L.) seeds were purchased from China Oil and Foodstuffs Corporation (Beijing, China). […] Pepsin (3000-3500 NFU/g), trypsin (250.N.F.U/mg), and α-chymotrypsin (1200 u/mg) were obtained from Solarbio Science and Technology Co., Ltd. (Beijing, China). Nanofiltration and ultrafiltration membranes were purchased from Rising Sun Membrane Technology Co., Ltd. (Beijing, China). All other reagents used in this study were of analytical grade. The ACE inhibitory activity was measured by using cary eclipse fluorescence spectrophotometer (Agilent Technologies Australia Pty Ltd., Mulgrave, Australia) according to a modified method of Li et al.. The sample was dissolved by distilled water to the appropriate concentration and the 96-well plate was used as the reaction vessel. Briefly, 30 μL of HHL substrate containing 0.3 mol/L NaCl in 50 mM borate buffer (pH 8.3) and 15 μL of samples were mixed. […] The reaction was stopped by using 125 μL of 1.2 mol/L NaOH. Finally, 30 μL of methanol solution containing 2% OPA was added, mixed evenly, and then stood at room temperature for 20 min. The derivative reaction was terminated by adding 40 μL of 6 mol/L HCl. The reaction solution was diluted 10 times and added into the fluorescence cell. The fluorescence absorption intensity was measured within 30–90 min. […] All assays were performed in triplicate. ACE inhibitory activity was calculated by using the following equation:ACE inhibitory activity (%) = [1 − (a−c)/(b−d)] × 100(2) where a is the fluorescence absorption intensity in the presence of both ACE and inhibitor, b is the fluorescence absorption intensity in the presence of ACE but not inhibitor, c is the fluorescence absorption intensity in the presence of inhibitor but not ACE, d is the fluorescence absorption intensity in the absence of both ACE and inhibitor.

ACE = system: ACE; set-up: method as in doi:10.1007/s10989-015-9471-y; conditions: peptide from sesame protein hydrolyzed by alcalase, ref [20], cited from earlier work
[2] = target: T2, Angiotensin Converting Enzyme (ACE) from rabbit lung (rabbit)

| Molecule | IC50 [1] [µM] | IC50 of ACE inhibitory activity (enzyme activity on HHL substrate, OPA fluorescence, 37 °C, pH 8.3) [2] [μM] | other results |
| --- | --- | --- | --- |
| AFPAGAAHW | 29 ± 0.2 |  |  |
| AGALGDSVTVTR | 68.49 ± 0.14 |  |  |
| FMPGVPGPIQR | 11.1 ± 0.15 |  |  |
| GHIITVAR | 3.6 ± 0.1 |  |  |
| HIGNILSL | 36.69 ± 0.33 |  |  |
| HIITLGR [HIITLGR] | 74.65 ± 0.13 |  |  |
| INTLSGR [INTLSGR] | 149.6 ± 0.33 |  |  |
| LAGNPAGR | 148.4 ± 0.35 |  |  |
| MPGVPGPIQR | 54.79 ± 0.37 |  |  |
| PNYHPSPR | 19 ± 0.26 |  |  |
| YAHYSYA |  |  | IC50 value, ACE inhibition (ACE): 600 µg/mL; IC50 (ACE; read-out: IC50 value, ACE inhibition): 687 µM |
| B1 |  | 3.6 |  |
| B2 |  | 68.5 |  |
| B3 |  | 150 |  |
| B4 |  | 36.7 |  |
| B5 |  | 11.1 |  |
| B6 |  | 19 |  |
| B7 |  | 29 |  |
| B8 |  | 74.7 |  |
| B9 |  | 148 |  |
| B10 |  | 54.8 |  |
